Data set [1] relates to cells from femurs and tibias of ICR mice. Description: Osteoclast formation suppression test (TRAP activity). It counts as cell-based, mouse. Conditions: 20 nM active form vitamin D3; compounds 0.01-0.3 μg/ml; culturing for five days. As for the experimental part:
18 day-old ICR mice were purchased from Japan SLC, Inc. and used in the following experiments. The mice were sacrificed by cervical dislocation and the right and left femurs and tibias were extracted. After the tissue around the extracted femurs and tibias was removed, they were finely minced with scissors. 10 mL of 15%-FBS-αMEM was added to the minced femurs and tibias and the supernatant was collected after agitation for one minute and filtering with a cell strainer (Becton Dickinson company). A cell suspension containing 500,000 cells/mL was prepared with 15%-FBS-αMEM. The cell suspension was dispensed to the wells of a 96 well microplate (Falcon company) in an amount of 100 μL per well so as to achieve 50,000 cells/well and cultured for 24 hours. Active form vitamin D3 (Sigma company, Cat.No.D1530) was dispensed to the wells in final concentrations of 20 nM. Compounds were dispensed to the wells in final concentrations of 0.01, 0.03, 0.1, 0.3 μg/ml except the following control group. DMSO was dispensed to the wells of the control group in a final concentration of 0.1% (v/v). Tartrate-resistant acid phosphatase (TRAP) activity was measured for each group after culturing for five days.
The measurement of TRAP activity was performed as follows. That is, after the whole medium was removed from each well of the culturing plate, each well was washed twice by dispensing and removing 100 μL of Dulbecco's phosphate buffer (available from GIBCO BRL Cat. No. 14190-144). After retaining with a mixture of acetone-ethanol (1:1) for one minute, the retention liquid was removed and the wells were stained at 37° C. with Leukocyte acid phosphatase kit (Sigma company, Cat. No. 387-A) for 30 minutes. The staining solution was removed, then 100 μL of 10% sodium dodecylsulfate (Wako Pure Chemical Industries, Ltd. Cat. No. 191-07145) was dispensed and the mixture was stirred for five minutes, and then absorbance was measured using a microplate reader (Bio-rad company). TRAP activity decrease rate (%) in the group blended with test compounds was calculated assuming the observed value of the control group of each plate to be 100% and evaluated as the osteoclast formation suppression activity.

The test system of data set [2] is female F344 rats. Description: Effect on fracture healing. It is filed as in vivo, rat. Conditions: orally once per day, six days a week, 39 days. The procedure: 12 week-old female F344 rats were purchased from Charles River Laboratories and used in the following experiment. An operation for fracturing bone was performed following a method of Li et al. (J. Bone Miner. Res 1999, 14: 969-979) under ketamine xylazine anesthesia. From the next day of the operation, 0.5% carboxymethyl cellulose sodium salt solution (Wako Pure Chemical Industries, Ltd. Cat. No. 039-01335) in which a test compound was suspended was orally administered once per day and six days a week. 39 days after the administration started, the animals were painlessly killed by removing the whole blood from the aorta abdominalis under ketamine xylazine anesthesia and the femurs were extracted.
After soft tissue was removed from the extracted femurs, they were measured by bone strength measuring apparatus MZ-500D (Maruto Instrument Co., Ltd.). 3-point bending tests were performed and determined by maximum load.

For data set [3], the system named is female F344 rats. In words: Effect on bone mineral density (ovariectomy). It is filed as in vivo, rat. Conditions: 10 mg/kg, orally once per day, six days a week, six weeks. As for the experimental part: 8 week-old female F344 rats were purchased from Charles River Laboratories and used in the following experiment. After ketamine (12.5 mg/ml)/xylazine (2.5 mg/ml) liquid mixture was intraperitoneally injected in an amount of 0.25 ml/100 g for anesthesia, ovariectomy or a sham operation was performed. From the next day of the operation, 0.5% carboxymethyl cellulose sodium salt solution (Wako Pure Chemical Industries, Ltd. Cat. No.039-01335) in which a test compound was suspended was orally administered once per day and six days a week. Six weeks after the administration started, the animals were painlessly killed by removing the whole blood from the aorta abdominalis under ketamine xylazine anesthesia and the right and left femurs were extracted.
After soft tissue was removed from the extracted femurs, the bone density was measured by DXA device DCS-600R (Aloka Co., Ltd.). The bone density was determined for the whole femur as well as three evenly divided parts, i.e., proximal, midshaft and distal end.

In another data set the test system is ST2 cells. Description: Osteoblast differentiation test (alkaline phosphatase activity). It is filed as cell-based. The settings on record: Mus musculus, ST-2, 96 h; at 0.03 μg/mL; culturing for four days; control group (0.1% DMSO) = 100%; read-out: alkaline phosphatase activity increase rate. As for the experimental part:
ST2 cells (available from Institute of Physical and Chemical Research) which are stroma cells derived from mouse marrow were used. In this test, α-MEM medium (available from GIBCO BRL Cat. No. 10370-021) with which 10% (v/v) inactivated fetal bovine serum (available from Hyclone Company, FBS) and 1% (v/v) Penicillin-Streptomycin, Liquid (available from GIBCO BRL Cat. No. 15140-122) are mixed (hereinbelow abbreviated as 10% -FBS-αMEM) was used. Every culture in this test was conducted in a CO2 incubator (37° C., 95% humidity, 5% CO2).
The cells mentioned above were harvested with 2 mL of 0.25% trypsin solution (available from GIBCO BRL Cat. No. 15050-065) and after they were dispersed by adding 10 mL of 10% -FBS-αMEM, the cells were collected by centrifugal separation (25° C., 800 rpm, 5 minutes). A cell suspension containing 40,000 cells/mL was prepared from the collected cells using 10% -FBS-αMEM.
The cell suspension was dispensed to the wells of a 96 well microplate (Falcon company) in an amount of 100 μL per well so as to achieve 4,000 cells/well and cultured for 24 hours. Compounds were dispensed to the wells in final concentrations of 0.01, 0.03, 0.1, 0.3 μg/ml except the following control group. DMSO was dispensed to the wells of the control group in a final concentration of 0.1% (v/v). Alkaline phosphatase (ALP) activity was measured for each group after culturing for four days.
The measurement of ALP activity was performed as follows. That is, after the whole medium was removed from each well of the culturing plate, each well was washed twice by dispensing and removing 100 μL of Dulbecco's phosphate buffer (available from GIBCO BRL Cat. No. 14190-144). Cell lysing solution containing 10 mM MgCl2 and 2%(v/v) TritonX-100 (Sigma company) was prepared and 50 μL/well of the cell lysing solution was dispensed and the mixture was stirred at room temperature for five minutes. An ALP substrate solution containing 50 mM of diethanolamine (Wako Pure Chemical Industries, Ltd. Cat. No. 099-03112) and 20 mM of […] (Wako Pure Chemical Industries, Ltd. Cat. No. 147-02343) was prepared and 50 μL/well of the ALP substrate solution was dispensed and after allowing to stand at room temperature for 10 minutes, absorbance was measured using a microplate reader (Bio-rad company). Alkaline phosphatase activity increase rate (%) in the group blended with test compounds was calculated assuming the observed value of the control group of each plate to be 100% and evaluated as the osteoblast differentiation promoting activity.

SMILES strings stand for the structures.

As for `NC(=O)c1sc2nccc(N3CCCN(c4ccccc4)CC3)c2c1N` [Example 57, 3-amino-4-(4-phenyl-1,4-diazepan-1-yl)thieno[2,3-b]pyridine-2-carboxamide], in data set [1], the “osteoclast formation suppression effect (TRAP activity decrease rate)” value is “excellent osteoclast formation suppression effect”. For the same compound, in the data set with female F344 rats [2], the “fracture healing (3-point bending test, maximum load)” value was “significantly improved fracture healing”. Further, the “bone density of femur (DXA)” value in the data set on female F344 rats [3] is “significantly increased the bone density”. The activity at 0.03 µg/mL in the data set with ST2 cells was more than 150%.
For the compound `CC(=O)c1ccc(N2CCCN(c3ccnc4sc(C(N)=O)c(N)c34)CC2)cc1` [Example 94, 4-[4-(4-acetylphenyl)-1,4-diazepan-1-yl]-3-aminothieno [2,3-b]pyridine-2-carboxamide], the melting point was 279 to 282 °C (dec.). For the same compound, the “osteoclast formation suppression effect (TRAP activity decrease rate)” value in data set [1] was “excellent osteoclast formation suppression effect”. Besides, the activity at 0.03 µg/mL in the data set on ST2 cells is more than 150%.
`NC(=O)c1sc2nccc(N3CCCN(c4nccs4)CC3)c2c1N` [Example 97, 3-amino-4-[4-(1,3-thiazol-2-yl)-1,4-diazepan-1-yl]thieno[2,3-b]pyridine-2-carboxamide]: the melting point fell in the range of 243 to 245 °C. Moreover, the “osteoclast formation suppression effect (TRAP activity decrease rate)” value in data set [1] is listed as “excellent osteoclast formation suppression effect”. The activity at 0.03 µg/mL with ST2 cells was more than 150%.
Turning to `NC(=O)c1sc2nccc(N3CCCN(c4ccccn4)CC3)c2c1N` [Example 99, 3-amino-4-(4-pyridin-2-yl-1,4-diazepan-1-yl)thieno[2,3-b]pyridine-2-carboxamide], the melting point was 237 to 239 °C. For the same compound, in data set [1], the “osteoclast formation suppression effect (TRAP activity decrease rate)” value is reported as “excellent osteoclast formation suppression effect”. In addition, in the data set with ST2 cells, the activity at 0.03 µg/mL is more than 150%.
The corresponding values for `COCC1CCCN(c2ccnc3sc(C(N)=O)c(N)c23)C1` (stereo not shown) [Example 101, 3-amino-4-[3-(methoxymethyl)piperidin-1-yl]thieno[2,3-b]pyridine-2-carboxamide] are 229 to 230 °C, “excellent osteoclast formation suppression effect” and more than 150%.
On the same counts, the results for `Cc1ccc(N2CCCN(c3ccnc4sc(C(N)=O)c(N)c34)CC2)nc1` [Example 106, 3-amino-4-[4-(5-methylpyridin-2-yl)-1,4-diazepan-1-yl]thieno[2,3-b]pyridine-2-carboxamide] are 205 to 208 °C, “excellent osteoclast formation suppression effect” and more than 150%.

One may read the melting point as the temperature of the solid-liquid transition.

Values taken from patent US20070219234A1, “Thienopyridine Derivatives” (priority 2004, published 2007).
